Experimental data published in patent publication US8044052B2, “Biaryl ether urea compounds” (Pfizer Inc., priority 2006, dated 2011).

Target: T1, Human FAAH (Homo sapiens, UniProt O00519)
T1 construct: made in house
T1 sequence (O00519 1-579): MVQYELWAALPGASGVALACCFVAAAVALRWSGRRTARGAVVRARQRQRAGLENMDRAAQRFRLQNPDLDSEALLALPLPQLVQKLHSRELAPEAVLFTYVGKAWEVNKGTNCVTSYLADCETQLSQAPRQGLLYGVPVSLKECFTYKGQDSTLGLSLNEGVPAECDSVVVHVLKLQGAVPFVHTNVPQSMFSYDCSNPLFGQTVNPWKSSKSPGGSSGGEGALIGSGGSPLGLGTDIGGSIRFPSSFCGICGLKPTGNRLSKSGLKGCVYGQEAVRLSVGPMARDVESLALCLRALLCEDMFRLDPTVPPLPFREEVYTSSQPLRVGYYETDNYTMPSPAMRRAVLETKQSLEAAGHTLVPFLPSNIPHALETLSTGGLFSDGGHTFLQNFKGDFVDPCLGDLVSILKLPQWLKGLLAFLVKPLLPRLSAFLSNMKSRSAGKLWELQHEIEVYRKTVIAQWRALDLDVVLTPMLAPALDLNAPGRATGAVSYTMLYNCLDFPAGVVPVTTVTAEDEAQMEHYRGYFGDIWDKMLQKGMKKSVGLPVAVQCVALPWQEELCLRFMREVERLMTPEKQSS
Experiment: FAAH assay (glutamate dehydrogenase-coupled, oleamide substrate, absorbance at 340 nm)
Format: biochemical
Details: irreversible inhibition, 1-4 nM FAAH, pH 7.4, 30° C., 90 min; for kinact/KI: read-out: hFAAH kinact/Ki

SMILES	kinact/KI [M⁻¹ s⁻¹]	hFAAH kinact/Ki [M⁻¹ s⁻¹]
C#CCCCOc1ccc(Oc2cccc(C=C3CCN(C(=O)Nc4cccnn4)CC3)c2)nc1 [Example 90, 4-(3-(5-(pent-4-ynyloxy)pyridin-2-yloxy)benzylidene)-N-(Pyridazin-3-yl)piperidine-1-carboxamide]	7600	
O=C(Nc1cccnn1)N1CCC(=Cc2cccc(Oc3ccccc3)n2)CC1 [Example 91, 4-((6-phenoxypyridin-2-yl)methylene)-N-(pyridazin-3-yl)piperidine-1-carboxamide]	636	
O=C(Nc1cccnc1)N1CCC(=Cc2cccc(Oc3ccccc3)n2)CC1 [Example 92, 4-((6-phenoxypyridin-2-yl)methylene)-N-(pyridin-3-yl)piperidine-1-carboxamide]	894	
COc1ccc(Oc2cccc(C=C3CCN(C(=O)Nc4cccnn4)CC3)c2)c(C)n1 [Example 97, 4-{3-[(6-methoxy-2-methylpyridin-3-yl)oxy]benzylidene}-N-pyridazin-3-ylpiperidine-1-carboxamide]	394	
O=C(Nc1cccnc1)N1CCC(=Cc2cccc(Oc3ccc(OCC(F)(F)F)cc3)c2)CC1 [Example 99, N-pyridin-{3-yl-4-3-[4-(2,2,2-trifluoroethoxy)phenoxy]benzylidene}piperidine-1-carboxamide]		1130
O=C(Nc1cccnn1)N1CCC(=Cc2cccc(Oc3ccc(OCC(F)(F)F)cc3)c2)CC1 [Example 100, N-pyridazin-3-yl-4-{3-[4-(2,2,2-trifluoroethoxy)phenoxy]benzylidene}piperidine-1-carboxamide]	2000	
COc1cccc2cnc(Oc3cccc(C=C4CCN(C(=O)Nc5cccnn5)CC4)c3)nc12 [Example 101, 4-{3-[(8-methoxyquinazolin-2-yl)oxy]benzylidene}-N-pyridazin-3-ylpiperidine-1-carboxamide]	209	
O=C(Nc1cccnn1)N1CCC(=Cc2cccc(Oc3ncc4cccnc4n3)c2)CC1 [Example 102, N-pyridazin-3-yl-4-[3-(pyrido[2,3-d]pyrimidin-2-yloxy)benzylidene]piperidine-1-carboxamide]	1390	
O=C(Nc1cccnn1)N1CCC(=Cc2cccc(Oc3ncccn3)c2)CC1 [Example 103, N-pyridazin-3-yl-4-[3-(pyrimidin-2-yloxy)benzylidene]piperidine-1-carboxamide]	162	
COc1ccc(-c2cnc(Oc3cccc(C=C4CCN(C(=O)Nc5cccnn5)CC4)c3)nc2)cc1 [Example 104, 4-(3-{[5-(4-methoxyphenyl)pyrimidin-2-yl]oxy}benzylidene)-N-pyridazin-3-ylpiperidine-1-carboxamide]	105	
O=C(Nc1cccnn1)N1CCC(=Cc2cccc(Oc3ncc4ccccc4n3)c2)CC1 [Example 105, N-pyridazin-3-yl-4-[3-(quinazolin-2-yloxy)benzylidene]piperidine-1-carboxamide]	2530	
O=C(Nc1cccnn1)N1CCC(=Cc2cccc(Oc3ncc(C4CC4)cn3)c2)CC1 [Example 106, 4-{3-[(5-cyclopropylpyrimidin-2-yl)oxy]benzylidene}-N-pyridazin-3-ylpiperidine-1-carboxamide]	3330	
CCc1cnc(Oc2cccc(C=C3CCN(C(=O)Nc4cccnn4)CC3)c2)nc1 [Example 107, 4-{3-[(5-ethylpyrimidin-2-yl)oxy]benzylidene}-N-pyridazin-3-ylpiperidine-1-carboxamide]	6220	
O=C(Nc1cccnn1)N1CCC(=Cc2cccc(Oc3ncc(F)cn3)c2)CC1 [Example 108, 4-{3-[(5-fluoropyrimidin-2-yl)oxy]benzylidene}-N-pyridazin-3-ylpiperidine-1-carboxamide]	1120	
Cc1cnc(Oc2cccc(C=C3CCN(C(=O)Nc4cccnn4)CC3)c2)nc1 [Example 109, 4-{3-[(5-methylpyrimidin-2-yl)oxy]benzylidene}-N-pyridazin-3-ylpiperidine-1-carboxamide]	1240	
O=C(Nc1cccnn1)N1CCC(=Cc2cccc(Oc3ncc(-c4cccc(Cl)c4)cn3)c2)CC1 [Example 110, 4-(3-{[5-(3-chlorophenyl)pyrimidin-2-yl]oxy}benzylidene)-N-pyridazin-3-ylpiperidine-1-carboxamide]	1020	
CCCc1cnc(Oc2cccc(C=C3CCN(C(=O)Nc4cccnn4)CC3)c2)nc1 [Example 111, 4-{3-[(5-propylpyrimidin-2-yl)oxy]benzylidene}-N-pyridazin-3-ylpiperidine-1-carboxamide]	4240	
Cc1cnc(Oc2cccc(C=C3CCN(C(=O)Nc4cccnn4)CC3)c2)nc1C(C)C [Example 112, 4-{3-[(4-isopropyl-5-methylpyrimidin-2-yl)oxy]benzylidene}-N-pyridazin-3-ylpiperidine-1-carboxamide]	861	
O=C(Nc1cccnn1)N1CCC(=Cc2cccc(Oc3nccc(C(F)(F)F)n3)c2)CC1 [Example 113, N-pyridazin-3-yl-4-(3-{[4-(trifluoromethyl)pyrimidin-2-yl]oxy}benzylidene)piperidine-1-carboxamide]	584	
Cc1nc2c(c(Oc3cccc(C=C4CCN(C(=O)Nc5cccnn5)CC4)c3)n1)CCN(C)C2 [Example 114, 4-{3-[(2,7-dimethyl-5,6,7,8-tetrahydropyrido[3,4-d]pyrimidin-4-yl)oxy]benzylidene}-N-pyridazin-3-ylpiperidine-1-carboxamide]	< 10	
CCc1cc(Oc2cccc(C=C3CCN(C(=O)Nc4cccnn4)CC3)c2)nc(C(F)(F)F)n1 [Example 115, 4-(3-{[6-ethyl-2-(trifluoromethyl)pyrimidin-4-yl]oxy}benzylidene)-N-pyridazin-3-ylpiperidine-1-carboxamide]	< 11.2	
Cc1cc(C(F)(F)F)cc(Oc2cccc(C=C3CCN(C(=O)Nc4cccnn4)CC3)c2)n1 [Example 116, 4-(3-{[6-methyl-4-(trifluoromethyl)pyridin-2-yl]oxy}benzylidene)-N-pyridazin-3-ylpiperidine-1-carboxamide]	40.8	
O=C(Nc1cccnn1)N1CCC(=Cc2cccc(Oc3ccc(C(=O)N4CCOCC4)cn3)c2)CC1 [Example 117, 4-(3-{[5-(morpholin-4-ylcarbonyl)pyridin-2-yl]oxy}benzylidene)-N-pyridazin-3-ylpiperidine-1-carboxamide]	< 12.4	
Cc1nccnc1Oc1cccc(C=C2CCN(C(=O)Nc3cccnn3)CC2)c1 [Example 118, 4-{3-[(3-methylpyrazin-2-yl)oxy]benzylidene}-N-pyridazin-3-ylpiperidine-1-carboxamide]	191	
Cc1nnc(Oc2cccc(C=C3CCN(C(=O)Nc4cccnn4)CC3)c2)c2ccccc12 [Example 119, 4-{3-[(4-methylphthalazin-1-yl)oxy]benzylidene}-N-pyridazin-3-ylpiperidine-1-carboxamide]	77.7	
Cc1cc(C)nc(Oc2cccc(C=C3CCN(C(=O)Nc4cccnn4)CC3)c2)n1 [Example 120, 4-{3-[(4,6-dimethylpyrimidin-2-yl)oxy]benzylidene}-N-pyridazin-3-ylpiperidine-1-carboxamide]	< 14.5	
COc1cc(Oc2cccc(C=C3CCN(C(=O)Nc4cccnn4)CC3)c2)ncn1 [Example 121, 4-{3-[(6-methoxypyrimidin-4-yl)oxy]benzylidene}-N-pyridazin-3-ylpiperidine-1-carboxamide]	896	
